From US9682126B2, “Postprandial gastrokinetic agent” (ZERIA PHARMACEUTICAL CO., LTD., priority 2013, dated 2017)
Read-outs that look alike come from different tables or passages of the source. Ends that are not written are not given here. * marks the point of attachment. Octanoyl = CCCCCCCC(=O)*

Key:
[1] = test system: subjects; details: cited from earlier work
[2] = test system: isolated stomach of Suncus murinus; details: ghrelin alone, even at a high dose, in vitro; cited from earlier work
[3] = test system: Suncus murinus; assay: Postprandial motility by co-administration of ghrelin and motilin, ΔMI (Example 3); format: in vivo
Method: Each of Suncus motilin (Scrum Inc., Tokyo, Japan) and human ghrelin (Asubio Pharma Co., Ltd., Hyogo, Japan) was dissolved in PBS containing 0.1% bovine serum albumin.
Suncus murinus (male, outbred KAT strain, 7 to 39 weeks old, 56 to 91 g) was used for the experiment. The Each animal was bred in a plastic cage provided with an empty can as a nest box under the following conditions: temperature at 23±2° C., illumination between 8:00 and 20:00, and free intake of commercial trout feed (SP, Nippon Formula Feed Mfg Co., Ltd., Yokohama, Japan).
After 3 hours of fasting, Suncus murinus was anesthetized by an intraperitoneal injection of pentobarbital sodium (50 mg/kg). Through a midline incision, the stomach was exposed outside the body, and a force transducer was fixed via suture in the circular muscle direction of the body of stomach. The wire extending from the force transducer was inserted through the abdominal wall, passed under the skin, and exposed at the back of the neck.
An intravenous catheter was inserted in the right jugular, and extracorporeally fixed to the back. The catheter was filled with heparinized saline (100 units/mL) to prevent clotting.
Each of the operated Suncus murinus was allowed to recover for several days.
Drug administration and measurement of gastric motility were performed in the conscious, free-moving state without anesthesia.
2 g of feed was given to each Suncus murinus fastened (for 8 to 10 hours) for 10 minutes. After the intake of feed for 10 minutes, ghrelin (50, 1,000, or 3,000 ng/kg), motilin (300, 500, 1,000, or 3,000 ng/kg), or a mixed solution of ghrelin (15 or 50 ng/kg) and motilin (100, 200, or 300 ng/kg) was intravenously administered through a jugular vein catheter rapidly.
Amplified analog signals were converted into digital signals by an analog-to-digital converter (ADC-20, Pico Technology Ltd, St Neots, UK), and the digital signals were recorded on a computer.
Phase III contractions of MMC in conscious Suncus murinus were defined on the basis of those in dogs and humans (that is, clustered contractions with an amplitude of 8 g or more that lasts for 5 minutes or more).
Gastric motility was quantitated using a motility index (ΔMI). A motility index (ΔMI) based on a drug was calculated using the following equation. ΔMI (%)=(A−C)/B×100 A: AUC of contractions for 10 minutes during which the drug was administered B: AUC of 10-minute spontaneous phase III contractions appeared before administration of the drug C: (AUC of contractions appeared for 5 minutes between 5 and 10 minutes after the intake of feed)×2 (2) Results (FIG. 9) A. Action of Ghrelin Alone

[4] = test system: Suncus murinus; assay: Postprandial gastric motility, force transducer on stomach, motility index MI (Example 1); format: in vivo; details: ghrelin 50 ng/kg iv after 10-min feed intake
Method: Effects of administration of each of ghrelin and motilin and co-administration of ghrelin and motilin on postprandial gastric motility in Suncus murinus were studied. Each of Suncus motilin (Scrum Inc., Tokyo, Japan) and human ghrelin (Asubio Pharma Co., Ltd., Hyogo, Japan) was dissolved in phosphate buffered saline (PBS) containing 0.1% bovine serum albumin. Suncus murinus (male, outbred KAT strain, 8 to 9 weeks old, 73 to 90 g) was used for the experiment. Each animal was bred in a plastic cage provided with an empty can as a nest box under the following conditions: temperature at 23±2° C., illumination between 8:00 and 20:00, and free intake of commercial trout feed (SP, Nippon Formula Feed Mfg Co., Ltd., Yokohama, Japan). After 3 hours of fasting, Suncus murinus was anesthetized by an intraperitoneal injection of pentobarbital sodium (50 mg/kg). Through a midline incision, the stomach was exposed outside the body, and a force transducer was fixed via suture in the circular muscle direction of the body of stomach. […] Amplified analog signals were converted into digital signals by an analog-to-digital converter (ADC-20, Pico Technology Ltd, St Neots, UK), and the digital signals were recorded on a computer. […] Gastric motility was quantitated using a motility index (MI). A motility index (MI) based on a drug was calculated using the following equation. […]

[5] = test system: Suncus murinus; assay: Gastric motility in interdigestive period, sham-operated vs vagotomized (Example 2); format: in vivo; details: for amplitude of spontaneous phase II contractions: ghrelin 0.1, 0.3, 1, 3, or 10 μg/kg/min iv over 10 minutes in phase II
Method: Each of Suncus motilin (Scrum Inc., Tokyo, Japan) and human ghrelin (Asubio Pharma Co., Ltd., Hyogo, Japan) were dissolved in PBS containing 0.1% bovine serum albumin. Suncus murinus (male, outbred KAT strain, 7 to 15 weeks old, 60 to 100 g) was used for the experiment. Each animal was bred in a plastic cage provided with an empty can as a nest box under the following conditions: temperature at 23±2° C., illumination between 8:00 and 20:00, and free intake of commercial trout feed (SP, Nippon Formula Feed Mfg Co., Ltd., Yokohama, Japan). After 3 hours of fasting, Suncus murinus was anesthetized by an intraperitoneal injection of pentobarbital sodium (50 mg/kg). Through a midline incision, the stomach was exposed outside the body, and a force transducer was fixed via suture in the circular muscle direction of the body of stomach. The wire extending from the force transducer was inserted through the abdominal wall, passed under the skin, and exposed at the back of the neck. Thereafter, truncal vagotomy was performed. A lower portion of the esophagus was exposed, both branches of the vagus nerve were isolated, and about 3 mm of the vagus nerve was excised above the hepatic branch and the celiac branch. For sham-operated Suncus murinus, the vagus nerve was exposed, but not excised. An intravenous catheter was inserted in the right jugular, and extracorporeally fixed to the back. The catheter was filled with heparinized saline (100 units/mL) to prevent clotting. From 2 days after the operation, the gastric motility was recorded. Administration of motilin was initiated 10 minutes after completion of spontaneous phase III. Synthesized suncus motilin was continuously injected at 50 ng/kg/min over 10 minutes, and the continuously injected amount was 50 μL/100 g BW/min. Administration of ghrelin was initiated 10 minutes after completion of spontaneous phase II. […] Amplified analog signals were converted into digital signals by an analog-to-digital converter (ADC-20, Pico Technology Ltd, St Neots, UK), and the digital signals were recorded on a computer. Phase III contractions of MMC in conscious Suncus murinus were defined on the basis of those in dogs and humans (that is, clustered contractions with an amplitude of 8 g or more that lasts for 5 minutes or more). Gastric motility was quantitated using a motility index (MI). A motility index (MI) based on a drug was calculated using the following equation. MI (%)=A/B×100 A: AUC of contractions for 10 minutes during which the drug was administered B: […] Statistical analysis After ANOVA, Student's t test was performed.

[6] = ghrelin 50 ng/kg iv after feed intake
[7] = ghrelin 1,000 ng/kg iv after feed intake
[8] = ghrelin 3,000 ng/kg iv after feed intake

| Molecule | gastric emptying ([1]; mitemcinal administered to fasting subjects) | gastric contractions [2] | Motility Index (ΔMI) [3, 6] | contractions of the body of the stomach [3, 6] | Motility Index (ΔMI) [3, 7] | contractions of the body of the stomach [3, 7] | Motility Index (ΔMI) [3, 8] | contractions of the body of the stomach [3, 8] | contractions of the body of the stomach [4] | MI during administration of ghrelin, sham-operated compared with vagotomized ([5]; phase II of MMC, fasted) | amplitude of spontaneous phase II contractions ([5]; sham-operated) | amplitude of spontaneous phase II contractions ([5]; vagotomized) | gastric emptying ([1]; continuous intravenous or massive administration of ghrelin after food intake, healthy subjects and patients with diabetes) |
| --- | --- | --- | --- | --- | --- | --- | --- | --- | --- | --- | --- | --- | --- |
| CC[C@H]1OC(=O)[C@H](C)[C@@H](O[C@H]2C[C@@](C)(OC)[C@@H](O)[C@H](C)O2)[C@H](C)[C@@H](O[C@@H]2O[C@H](C)C[C@H](N(C)C(C)C)[C@H]2O)[C@@]2(C)CC(C)=C(O2)[C@H](C)C(=O)[C@]1(C)OC [mitemcinal] | enhances gastric emptying | – | – | – | – | – | – | – | – | – | – | – | – |
| ghrelin: human ghrelin (Asubio Pharma); 28-amino acid residue peptide, hydroxyl group of serine at position 3 esterified by octanoic acid (GSS(Octanoyl)FLSPEHQRVQQRKESKKPPAKLQPR; UniProt Q9UBU3 24-51, looked up) | – | does not accelerate gastric contractions | About 2.8% | did not induce contractions of the body of the stomach | About 7.6% | did not induce contractions of the body of the stomach | About 0.03% | did not induce contractions of the body of the stomach | did not induce contractions of the body of the stomach | higher | amplified the amplitude of spontaneous phase II contractions | did not change the amplitude of spontaneous phase II contractions | accelerates gastric emptying |
